Activity calls are given as the source filed them. How the calls were made is not given here.

For the experiment, the target named is Serine/threonine-protein kinase mTOR (Homo sapiens) (UniProt P42345). The experiment can be described thus: mTOR FRB domain ligand binding – biophysical, NMR (AID 1648). Particulars: NMR binding to FRB domain, chemical shift.
Sequence of Serine/threonine-protein kinase mTOR (Homo sapiens) (P42345 2015-2114): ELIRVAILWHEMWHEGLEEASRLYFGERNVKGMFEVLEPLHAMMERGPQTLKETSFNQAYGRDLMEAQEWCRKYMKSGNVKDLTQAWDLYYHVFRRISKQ
By Kd is commonly meant a measure of binding affinity in units of concentration. As for `Cc1nnc(SCc2ccon2)n1-c1ccccc1`, the Kd was > 4 mM (inactive).

For `Cn1ncc(NC(=O)Nc2ccc(F)cc2F)c1C(N)=O`, the Kd was > 4 mM (inactive).

As to `Cc1cc(N)n(-c2ccccc2)n1`, the Kd was > 4 mM (inactive).

For `O=S1(=O)C=CC(Nc2ccccc2)C1` (stereo not drawn), the Kd was > 4 mM (inactive).

In the case of `CC1(C)CC[C@]2(C)CC[C@]3(C)C(=CCC4[C@@]5(C)CC[C@H](O)C(C)(C)C5CC[C@]43C)C2C1` (stereo partly drawn), the Kd is > 4 mM (inactive).

Regarding `Cc1cccc(-c2nnc(-c3ccc(N)cc3)o2)c1`, the Kd is > 4 mM (inactive).

Consider `O=c1c2ccccc2nc2n1CCCCN2`, for which the Kd is > 4 mM (inactive).

For `Cc1ccc(C)c(C(=O)NCc2ccncc2)c1`, the Kd was > 4 mM (inactive).

Regarding `Cc1c(C(=O)O)cnn1-c1ccccc1`, the Kd was > 4 mM (inactive).

Consider `CC1C[C@H]2CC(=O)[C@H]3CCCN4CCC[C@H]2[C@]34C1` (stereo partly drawn), for which the Kd was > 4 mM (inactive).

As to `NC12CC3CC(C1)CC(O)(C3)C2`, the Kd is > 4 mM (inactive).

As for `CC(=O)O[C@@H]1C=C[C@@]2(C)C(C[C@@H](OC(C)=O)[C@@]3(C)C4=CC(=O)O[C@@H](c5ccoc5)[C@]4(C)CCC23)C1(C)C` (stereo partly drawn), the Kd is > 4 mM (inactive).

Consider `CCc1sc(C(=O)NC)cc1Br`, for which the Kd was > 4 mM (inactive).

Regarding `Cc1nc2ccccc2c(=O)n1NC(=O)C1CCCCC1`, the Kd is > 4 mM (inactive).

Turning to `Nc1cc(N)nc(SCc2cccnc2)n1`, the Kd was > 4 mM (inactive).

In the case of `O=C1CSC(=Nc2cccc(C(F)(F)F)c2)N1`, the Kd is > 4 mM (inactive).

For the molecule `O=C(O)Cn1cnc2ccccc2c1=O`, the Kd is > 4 mM (inactive).

Regarding `Cn1nnc2cc(C(=O)NC3=NCCS3)ccc21`, the Kd is > 4 mM (inactive).

Turning to `O=C(NCc1ccco1)c1cccc(F)c1`, the Kd is > 4 mM (inactive).

As for `CC(=O)Nn1cc2c(=O)n(C)c(=O)n(C)c2c1`, the Kd is > 4 mM (inactive).

For `O=C(O)/C=C1\NC(=O)c2ccccc21`, the Kd was > 4 mM (inactive).

On to `CCc1noc(C)c1C(=O)N1CCCC1`, for which the Kd was > 4 mM (inactive).

Regarding `Cc1cc(NC(=O)CSc2nncn2C)no1`, the Kd was > 4 mM (inactive).

In the case of `COc1ccc(-c2c(OC)c3c(OC)c4c(cc3oc2=O)OC(C)(C)C=C4)cc1`, the Kd was > 4 mM (inactive).

With `COc1cc(C2NC(=S)NC(C)=C2C(C)=O)ccc1O` (stereo not drawn), the Kd was > 4 mM (inactive).

With `O=C1CCCN1c1ccc(S(=O)O)cc1`, the Kd was > 4 mM (inactive).

In the case of `CC(C)c1c(O)ccc2c1CCC1C(C)(C)CCC[C@]21C` (stereo partly drawn), the Kd was > 4 mM (inactive).

Take `COc1ccc([C@@H](C)C(=O)c2ccc(O)cc2O)cc1`: the Kd is > 4 mM (inactive).

For `Cc1nc2ccccc2c(=O)[nH]1`, the Kd is > 4 mM (inactive).

As for `CC1CCC2(OC1)OC1CC3C4CC[C@H]5C[C@@H](O)CC[C@]5(C)C4CC(=O)[C@]3(C)C1C2C` (stereo partly drawn), the Kd was > 4 mM (inactive).

With `N[C@@H](Cc1ccc(O)c(O)c1)C(=O)O`, the Kd is > 4 mM (inactive).

Turning to `O=C(O)c1cccc2nsnc12`, the Kd is > 4 mM (inactive).

Consider `CC1(O)CC2C(CC1O)C2(C)C` (stereo not drawn), for which the Kd is > 4 mM (inactive).

Regarding `NC(=O)c1ccc(NC(=O)c2cccnc2)cc1`, the Kd is > 4 mM (inactive).

In the case of `Cc1cc(C)cc(C(=O)N2CCC(C(N)=O)CC2)c1`, the Kd is > 4 mM (inactive).

Consider `COc1cc2nc(-c3cccs3)oc(=O)c2cc1OC`, for which the Kd was > 4 mM (inactive).

Regarding `CSc1nnc(-c2ccccc2NC(C)=O)o1`, the Kd was > 4 mM (inactive).

On to `Cc1cc(=O)[nH]c(N)n1`, for which the Kd is > 4 mM (inactive).

For `Cn1c(=O)c2c(ncn2C)n(C)c1=O`, the Kd is > 4 mM (inactive).

With `CC1(C)CC2(C)N(N)C(=O)CN2C(=S)N1` (stereo not drawn), the Kd was > 4 mM (inactive).

Take `COC(=O)C1=CO[C@@H](O[C@@H]2O[C@H](CO)[C@@H](O)[C@H](O)[C@H]2O)[C@@H]2[C@@H](C)[C@@H](O)C[C@H]12`: the Kd was > 4 mM (inactive).

With `Cn1cnc2c1c(=O)[nH]c(=O)n2C`, the Kd was > 4 mM (inactive).

Take `O=C(O)c1ccc(-c2ccccn2)s1`: the Kd was > 4 mM (inactive).

With `OCC12COC3c4ccccc4C(OC1)N32` (stereo not drawn), the Kd is > 4 mM (inactive).

With `COc1cc(/C=C/C(=O)/C=C(O)/C=C/c2ccc(O)c(OC)c2)ccc1O`, the Kd is > 4 mM (inactive).

Turning to `O=C(Nc1ccc2c(c1)OCO2)c1ccc(=O)[nH]n1`, the Kd is > 4 mM (inactive).

As to `Nc1ccc(C2SCCS2)cc1`, the Kd is > 4 mM (inactive).

On to `O=C(O)c1ccc(Oc2ccccc2)nc1`, for which the Kd is > 4 mM (inactive).

Regarding `O=CN1CCN(C(=O)c2ccccc2Cl)CC1`, the Kd was > 4 mM (inactive).

`CC1(C)Oc2ccc3ccc(=O)oc3c2CC1O` (stereo not drawn): the Kd is > 4 mM (inactive).

For `CCOC(=O)c1csc(C)n1`, the Kd was > 4 mM (inactive).

`CNS(=O)(=O)c1cc(OC)ccc1OC`: the Kd is > 4 mM (inactive).

With `CC1(C)CC[C@]2(C(=O)O)CC[C@]3(C)C(=CCC4[C@@]5(C)CC[C@@H](O)C(C)(C)C5CC[C@]43C)C2C1` (stereo partly drawn), the Kd was > 4 mM (inactive).

As to `Nc1nc2ccc(N3CCOCC3)cc2s1`, the Kd is > 4 mM (inactive).

For the molecule `O=C(c1ccc(F)cc1)C1CCNCC1`, the Kd was > 4 mM (inactive).

Take `COC(=O)c1cc(-c2c(C)nn(-c3ccccc3)c2C)n[nH]1`: the Kd was > 4 mM (inactive).

On to `Cc1ccc(NC(=O)N2CCC(C(N)=O)CC2)cc1`, for which the Kd was > 4 mM (inactive).

With `Cc1cccc(NC(=O)Nc2cc(C)on2)c1`, the Kd is > 4 mM (inactive).

With `Cc1ccsc1/C=c1\sc2ncnn2c1=O`, the Kd is > 4 mM (inactive).

Consider `CC(=O)Nc1ccc(S(=O)(=O)N(C)C)cc1`, for which the Kd was > 4 mM (inactive).

Turning to `O=C(O)c1cc(=O)[nH]c2ccccc12`, the Kd is > 4 mM (inactive).

For `COc1ccc(Cl)cc1NC(=O)C(N)=O`, the Kd is > 4 mM (inactive).

Turning to `O=C1C=C(O)c2ccccc2C1=O`, the Kd was > 4 mM (inactive).

For `Cc1noc(C)c1C(=O)NCc1ccco1`, the Kd is > 4 mM (inactive).

As for `O=C(Nc1ccc2c(c1)OCO2)c1cccc(F)c1`, the Kd is > 4 mM (inactive).

Consider `CC(=O)OCC[C@H](C)CCC=C(C)C`, for which the Kd is > 4 mM (inactive).

As to `O=C(NC1CCS(=O)(=O)C1)C1CCCCC1` (stereo not drawn), the Kd was > 4 mM (inactive).

As for `NC(=O)CSc1nnnn1-c1ccccc1`, the Kd was > 4 mM (inactive).

With `NC(Cn1ccc(=O)c(O)c1)C(=O)O` (stereo not drawn), the Kd is > 4 mM (inactive).

On to `CC(=O)NC1=C(N(C)C)C(=O)c2ccccc2C1=O`, for which the Kd was > 4 mM (inactive).

In the case of `CC1SC(=NC(=O)c2ccco2)NC1=O` (stereo not drawn), the Kd was > 4 mM (inactive).

Consider `COc1ccc2c(c1OC)C(=O)O[C@@H]2[C@@H]1c2cc3c(cc2CCN1C)OCO3`, for which the Kd is > 4 mM (inactive).

Regarding `Oc1ccc(C(=S)N2CCOCC2)cc1`, the Kd is > 4 mM (inactive).

Turning to `Oc1cc(O)c2c(c1)O[C@H](c1cc(O)c(O)c(O)c1)[C@H](O)C2`, the Kd is > 4 mM (inactive).

In the case of `O=C(c1cccc(C(F)(F)F)c1)N1CCCC1`, the Kd is > 4 mM (inactive).

As to `O=C(Nc1nnc(-c2ccco2)o1)c1ccc([N+](=O)[O-])o1`, the Kd is > 4 mM (inactive).

Turning to `CNCc1ccccc1`, the Kd is > 4 mM (inactive).

Take `CCn1ncc(Cl)c1C(=O)Nc1ccncc1`: the Kd was > 4 mM (inactive).

In the case of `O=C(c1ccc(F)cc1)N1CCN(c2ncccn2)CC1`, the Kd is > 4 mM (inactive).

Regarding `O=C(O)C1NCCc2ccccc21` (stereo not drawn), the Kd was > 4 mM (inactive).

As for `O=C1C2C3C=CC(C3)C2C(=O)N1c1ccccn1` (stereo not drawn), the Kd was > 4 mM (inactive).

With `CN(C)C(=O)CCNS(=O)(=O)c1ccccc1`, the Kd was > 4 mM (inactive).

Regarding `COc1ccccc1/C=C/CN1CCOCC1`, the Kd was > 4 mM (inactive).

On to `CCOC(=O)c1sc(SC)c2c1CCCC2O` (stereo not drawn), for which the Kd was > 4 mM (inactive).

For `O=C(c1cc2ccccc2o1)N1CCCCCC1`, the Kd is > 4 mM (inactive).

On to `O=C1Nc2ccccc2C1C1(O)C(=O)Nc2ccc(F)cc21` (stereo not drawn), for which the Kd was > 4 mM (inactive).

With `O=C1CC(N2CCC(O)CC2)C(=O)N1c1ccc(F)cc1` (stereo not drawn), the Kd was > 4 mM (inactive).

As to `O=C(Nc1ccccc1)C(=O)NC1CC1`, the Kd is > 4 mM (inactive).

Take `O=C(Cc1cccs1)Nc1nncs1`: the Kd is > 4 mM (inactive).

`O=C(CSc1ncn[nH]1)c1ccc2c(c1)OCCO2`: the Kd was > 4 mM (inactive).

On to `c1ccc(CCNc2ncnc3nc[nH]c23)cc1`, for which the Kd is > 4 mM (inactive).

As for `C=C1CSc2nc(=O)c3c(C)c(C)sc3n21`, the Kd was > 4 mM (inactive).

For the molecule `Nc1ncnc2c1ncn2CCN1CCCCC1`, the Kd was > 4 mM (inactive).

For the molecule `COC(=O)C[C@H]1C(C)(C)C(=O)[C@@H]2CC3=C4CC(=O)O[C@@H](c5ccoc5)[C@]4(C)CCC3C1(C)C2=O` (stereo partly drawn), the Kd was > 4 mM (inactive).

On to `Cc1c(N=Cc2ccc[nH]2)c(=O)n(-c2ccccc2)n1C`, for which the Kd is > 4 mM (inactive).

With `O=P1(O)c2ccccc2Nc2ccccc21`, the Kd was > 4 mM (inactive).

For the molecule `O=c1[nH]c2ccc(S(=O)(=O)NC3CC3)cc2[nH]1`, the Kd was > 4 mM (inactive).

Regarding `Nc1nsc(-c2ccccc2)n1`, the Kd was > 4 mM (inactive).

As to `O=C(O)c1ccc2snnc2c1`, the Kd is > 4 mM (inactive).

As for `O=c1[nH]nc(Cc2ccccn2)c2ccccc12`, the Kd was > 4 mM (inactive).

Turning to `Cc1n[nH]c(=O)nc1N1CCN(c2ccccc2)CC1`, the Kd was > 4 mM (inactive).

In the case of `CC(=O)N(C)Cc1nc2ccccc2n1C`, the Kd is > 4 mM (inactive).

Take `Cc1nnc(SCC(=O)Nc2ccccc2)[nH]c1=O`: the Kd was > 4 mM (inactive).

The values are drawn from PubChem BioAssay AID1648 (Sanford-Burnham Center for Chemical Genomics, 2009).
